Here are results for 2 compounds from patent EP4589010A1, “SCREENING METHOD FOR OFFENSIVE ODOR SUPPRESSING MATERIAL” (priority 2022, dated 2024).

Experiment [1] relates to broadly tuned olfactory receptor OR2W1. As to conditions: cited from earlier work.
For experiment [2], the system named is olfactory receptor OR2C1. Kind of experiment: Luciferase (GloSensor cAMP) assay, response of olfactory receptor to hexanal. To be noted: HEK293T cells expressing OR2C1; various hexanal concentrations; Figure 1. It is filed as cell-based, human. On the procedure:
(§1) 0.05 µg of human olfactory receptor gene expression vector, 0.01 µg of RTP1S vector, and 0.01 µg of firefly luciferase vector pGloSensor™-22F cAMP Plasmid (Promega) containing CMV promoter were dissolved in 10 µL of Opti-MEM I (Gibco) to prepare a gene solution (per well). HEK293T cells were seeded at 100 µL per well in a 96-well plate (Biocoat, Corning) at a number of cells that reached subconfluence after 24 hours, and the gene solution was added to each well by lipofection according to the usage of Lipofectamine 3000 so that the cells were transfected with the gene and cultured at 37°C in a 5% carbon dioxide atmosphere for 24 hours. After removal of the culture solution, the cells were washed once with HEPES buffer, and 100 µL of GloSensor™ cAMP Reagent (Promega), adjusted to a predetermined concentration with HEPES buffer supplemented with FBS, was added to each well, and allowed to stand for 2 hours at room temperature. Then, 10 µL of 10 mM hexanal solution prepared in HEPES buffer supplemented with 300 µM CuCl2 and FBS was added to each well, and the changes in the response value of the luciferase activity over time were measured every minute immediately after the addition, thus obtaining the responses of approximately 400 human olfactory receptors to hexanal. The magnitude of the olfactory receptor response was expressed as a fold increase value obtained by dividing the maximum response value of luciferase activity that occurred after stimulation with hexanal by the luciferase activity before the stimulation with hexanal. Accordingly, OR2C1, OR2J2, OR2J3, OR5K1, OR5P3 and OR51E1 were identified as candidate olfactory receptors responsive to hexanal. After that, an aroma compound as a sample was prepared in HEPES buffer supplemented with 300 µM CuCl2 and FBS to a concentration 10 times the final concentration. 10 µL this aroma compound stimulation solution was added to each well, and the changes in the luciferase activity over time were measured every minute immediately after the addition to obtain the responses of approximately 400 human olfactory receptors to the aroma compound. The magnitude of the response of the olfactory receptor was expressed as a fold increase value determined by dividing the maximum luciferase activity value that occurred by the stimulation with the aroma compound by the luciferase activity before the stimulation with the aroma compound.
(§2) The responses of hexanal, which is an offensive odor-causing substance, to the olfactory receptors OR2C1, OR2J2, OR2J3, OR5K1, OR5P3 and OR51E1 were measured at various concentrations by the luciferase activity assay described above.

For experiment [3], the system named is olfactory receptor OR2J2. Described as above. To be noted: HEK293T cells expressing OR2J2; various hexanal concentrations; Figure 2. It is filed as cell-based, human. On the procedure:
as §1, §2

Experiment [4] concerns olfactory receptor OR2J3. Described as above. Type of experiment: cell-based, human. To be noted: HEK293T cells expressing OR2J3; various hexanal concentrations; Figure 3. As for the experimental part: as §1, §2
The subject of experiment [5] is olfactory receptor OR51E1. Described as above. Type of experiment: cell-based, human. As to conditions: HEK293T cells expressing OR51E1; various hexanal concentrations; Figure 6. As for the experimental part: as §1, §2
The subject of experiment [6] is olfactory receptor OR5K1. The description is as above. It is filed as cell-based, human. As to conditions: HEK293T cells expressing OR5K1; various hexanal concentrations; Figure 4. On the procedure:
as §1, §2

In experiment [7] the test system is olfactory receptor OR5P3. The description is as above. As to conditions: HEK293T cells expressing OR5P3; various hexanal concentrations; Figure 5. Type of experiment: cell-based, human. On the procedure: as §1, §2
Experiment [8] concerns cells that do not express olfactory receptors. Kind of experiment: Luciferase assay, mock test. Type of experiment: cell-based. As for the experimental part:
0.05 µg of human olfactory receptor gene expression vector, 0.01 µg of RTP1S vector, and 0.01 µg of firefly luciferase vector pGloSensor™-22F cAMP Plasmid (Promega) containing CMV promoter were dissolved in 10 µL of Opti-MEM I (Gibco) to prepare a gene solution (per well). HEK293T cells were seeded at 100 µL per well in a 96-well plate (Biocoat, Corning) at a number of cells that reached subconfluence after 24 hours, and the gene solution was added to each well by lipofection according to the usage of Lipofectamine 3000 so that the cells were transfected with the gene and cultured at 37°C in a 5% carbon dioxide atmosphere for 24 hours. […] Then, 10 µL of 10 mM hexanal solution prepared in HEPES buffer supplemented with 300 µM CuCl2 and FBS was added to each well, and the changes in the response value of the luciferase activity over time were measured every minute immediately after the addition, thus obtaining the responses of approximately 400 human olfactory receptors to hexanal. The magnitude of the olfactory receptor response was expressed as a fold increase value obtained by dividing the maximum response value of luciferase activity that occurred after stimulation with hexanal by the luciferase activity before the stimulation with hexanal. […]

Turning to `CC1=CCC2CC1C2(C)C` (stereo not drawn) [alpha-pinene], the “suppression of the OR2W1 response” value in experiment [1] (masking agent against hexanal, Non-patent literature 6) is “suppress the OR2W1 response”.
Regarding `CCCCCC=O` [hexanal], in experiment [2], the “response of olfactory receptor OR2C1 to hexanal (fold increase value)” value was “concentration-dependent responses”. Besides, the “response of olfactory receptor OR2J2 to hexanal (fold increase value)” value in experiment [3] is listed as “concentration-dependent responses”. The “response of olfactory receptor OR2J3 to hexanal (fold increase value)” value in experiment [4] is “concentration-dependent responses”. Also, in experiment [5], the “response of olfactory receptor OR51E1 to hexanal (fold increase value)” value is “concentration-dependent responses”. Moreover, the “response of olfactory receptor OR5K1 to hexanal (fold increase value)” value in experiment [6] was “concentration-dependent responses”. In experiment [7], the “response of olfactory receptor OR5P3 to hexanal (fold increase value)” value is recorded as “concentration-dependent responses”. Also, in experiment [8], the “response to hexanal in the mock test” value is “no response was observed”. The “hexanal response of OR2W1” value in experiment [1] (in vitro tests, prior art) was “concentration-dependent hexanal response”.
